What all share (type): cell-based, human
The subject of assay [1] is p-ERK in AsPC-1 cells (KRAS G12D mutation). Description: Cell p-ERK assay (HTRF) in AsPC-1 cells. The conditions noted are these: AsPC-1 cells, 3 h compound incubation, HTRF p-ERK T202/Y204, read-out: AsPC-1 p-ERK IC50. In short, it runs like this:
(§1)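 Phospho-ERK inhibition measured by HTRF after a 3 h compound exposure (0.1% DMSO) in overnight-seeded cells; IC50 derived from dose-response fitting.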
(In TR-FRET formats the signal depends on donor and acceptor labels being close together.)

Another assay relates to NCI-H441 cells. Briefly: 3D cell proliferation assay (CellTiter Glo-3D), NCI-H441. The conditions noted are these: medium with 2% FBS, read-out: H441 AP IC50. The essentials:
(§2)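 Proliferation of the KRAS-mutant lines NCI-H441 and AsPC-1 is measured over 5 days of compound treatment in medium with 2% FBS. Inhibition is computed from luminescence relative to DMSO and cell-free controls, and IC50 comes from a four-parameter curve.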
On the technique in general: In ATP-based viability assays light output follows the ATP content of the culture.

The subject of assay [2] is AsPC-1 cells (KRAS G12D mutation). Description: 3D cell proliferation assay (CellTiter Glo-3D), AsPC-1. The conditions noted are these: medium with 2% FBS, read-out: AsPC-1 AP IC50. In short, it runs like this: as §2
Assay [3] deals with p-ERK in NCI-H441 cells (KRAS G12V mutation). Briefly: Cell p-ERK assay (HTRF) in NCI-H441 cells. The conditions noted are these: NCI-H441 cells, 3 h compound incubation, HTRF p-ERK T202/Y204, read-out: H441 p-ERK IC50. The essentials: as §1
The mark [4] stands for this setting: Homo sapiens, NCI-H441, 3D cell proliferation (CellTiter Glo-3D).
[5] abbreviates: Homo sapiens, ASPC1, 3D cell proliferation (CellTiter Glo-3D).
Setting [6] is: 3D cell proliferation (CellTiter Glo-3D).

Read-outs that look alike come from different tables or passages of the source.

By IC50 is commonly meant the midpoint of a concentration-inhibition curve. With `CCn1c(-c2cc(C#CCN3CCN(C)CC3)cnc2[C@H](C)OC)c2c3cc(ccc31)-c1csc(n1)C[C@H](NC(=O)[C@H]1[C@H](C)[C@@H]1C)C(=O)N1CCC[C@H](N1)C(=O)OCC(C)(C)C2` (atropisomer, axis not shown; (Ra)) [Compound Z703], the IC50 in assay [1] (Homo sapiens, ASPC1, 3 h) turned out to be 0.36 nM; with NCI-H441 cells (setting [4]) it was 0.3 nM; in assay [2] (setting [5]), 0.68 nM; in assay [3] (Homo sapiens, NCI-H441, 3 h), 0.17 nM.

On to `CCn1c(-c2cc([C@@H]3CCN4CCOC[C@H]4C3)cnc2[C@H](C)OC)c2c3cc(ccc31)-c1csc(n1)C[C@H](NC(=O)[C@H]1[C@H](C)[C@@H]1C)C(=O)N1CCC[C@H](N1)C(=O)OCC1(CC1)C2` (single isomer, unassigned) [Compound Z80], for which the IC50 in assay [1] (Homo sapiens, ASPC1, 3 h) was determined as 25.3 nM; in the assay with NCI-H441 cells (setting [4]) it was 7.27 nM; in assay [2] (setting [5]), 19 nM; in assay [3] (Homo sapiens, NCI-H441, 3 h), 11.7 nM.

`CCn1c(-c2cc(CCN3CCS(=O)(=O)CC3)cnc2[C@H](C)OC)c2c3cc(ccc31)-c1csc(n1)C[C@H](NC(=O)[C@H]1[C@H](C)[C@@H]1C)C(=O)N1CCC[C@H](N1)C(=O)OCC(C)(C)C2` [Compound Z485A, (1r,2R,3S)—N-((6^3S,4S,Z)-1^2-(5-(2-(1,1-dioxidothiomorpholino)ethyl)-2-((S)-1-methoxyethyl)pyridin-3-yl)-1-ethyl-10,10-dimethyl-5,7-dioxo-6^1,6^2,6^3,6^4,6^5,6^6-hexahydro-1^1H-8-oxa-2(4,2)-thiazola-1(5,3)-indola-6(1,3)-pyridazinacycloundecaphane-4-yl)-2,3-dimethylcyclopropane-1-carboxamide]: the IC50 in assay [1] is 1.45 nM; in the assay on NCI-H441 cells (setting [6]), 1 nM; in assay [2] (setting [6]) it was 2.4 nM; in assay [3], 1.14 nM.

On to `CCn1c(-c2cc(CCN3CCS(=O)(=O)CC3)cnc2[C@H](C)OC)c2c3cc(ccc31)-c1csc(n1)C[C@H](NC(=O)[C@H]1[C@H](C)[C@@H]1C)C(=O)N1CCC[C@H](N1)C(=O)OCC(C)(C)C2` (atropisomer, axis not shown; (Ra)) [Compound Z485, (1r,2R,3S)—N-((6^3S,4S,Z)—(Ra)-1^2-(5-(2-(1,1-dioxidothiomorpholino)ethyl)-2-((S)-1-methoxyethyl)pyridin-3-yl)-11-ethyl-10,10-dimethyl-5,7-dioxo-6^1,6^2,6^3,6^4,6^5,6^6-hexahydro-1^1H-8-oxa-2(4,2)-thiazola-1(5,3)-indola-6(1,3)-pyridazinacycloundecaphane-4-yl)-2,3-dimethylcyclopropane-1-carboxamide], for which the IC50 in assay [1] (Homo sapiens, ASPC1, 3 h) is 0.73 nM; in the assay on NCI-H441 cells (setting [4]), 0.42 nM; in assay [2] (setting [5]) it was 0.96 nM; in assay [3] (Homo sapiens, NCI-H441, 3 h), 0.35 nM.

`CCn1c(-c2cc(OCCN3CCOC4(CC4)C3)cnc2[C@H](C)OC)c2c3cc(ccc31)-c1csc(n1)C[C@H](NC(=O)[C@@H]1[C@@H](C)[C@H]1c1ccncn1)C(=O)N1CCC[C@H](N1)C(=O)OCC(C)(C)C2` (atropisomer, axis not shown; (Ra)) [Compound Z661-2, (1R,2S,3R)—N-((6^3S,4S,Z)—(Ra)-1^2-(5-(2-(4-oxa-7-azaspiro[2,5]octan-7-yl)ethoxy)-2-((S)-1-methoxyethyl)pyridin-3-yl)-11-ethyl-10,10-dimethyl-5,7-dioxo-6^1,6^2,6^3,6^4,6^5,6^6-hexahydro-1^1H-8-oxa-2(4,2)-thiazola-1(5,3)-indola-6(1,3)-pyridazinacycloundecaphane-4-yl)-2-methyl-3-(pyrimidin-4-yl)cyclopropane-1-carboxamide]: the half-inhibitory concentration (IC50) worked out at 3.99 nM in assay [1] (Homo sapiens, ASPC1, 3 h); 0.83 nM with NCI-H441 cells (setting [4]); 2.68 nM in assay [2] (setting [5]); 1.58 nM in assay [3] (Homo sapiens, NCI-H441, 3 h).

Turning to `CC[C@H](C)C(=O)N[C@H]1Cc2nc(cs2)-c2ccc3c(c2)c(c(-c2cc(OCCN4CCS(=O)(=O)CC4)cnc2[C@H](C)OC)n3CC)CC(C)(C)COC(=O)[C@@H]2CCCN(N2)C1=O` (atropisomer, axis not shown; (Ra)) [Compound Z609, (2S)—N-((6^3S,4S,Z)—(Ra)-1^2-(5-(2-(1,1-dioxidothiomorpholino)ethoxy)-2-((S)-1-methoxyethyl)pyridin-3-yl)-1^1-ethyl-10,10-dimethyl-5,7-dioxo-6^1,6^2,6^3,6^4,6^5,6^6-hexahydro-1^1H-8-oxa-2(4,2)-thiazola-1(5,3)-indola-6(1,3)-pyridazinacycloundecaphane-4-yl)-2-methylbutanamide], the IC50 worked out at 0.76 nM in assay [1] (Homo sapiens, ASPC1, 3 h); 0.22 nM with NCI-H441 cells (setting [4]); 0.79 nM in assay [2] (setting [5]); 0.76 nM in assay [3] (Homo sapiens, NCI-H441, 3 h).

For the compound `CO[C@@H](C)c1ncc(C#CCN2CCS(=O)(=O)CC2)cc1-c1c2c3cc(ccc3n1CCO)-c1csc(n1)C[C@H](NC(=O)[C@H]1[C@H](C)[C@@H]1C)C(=O)N1CCC[C@H](N1)C(=O)OCC(C)(C)C2` (atropisomer, axis not shown; (Ra)) [Compound Z952, (1r,2R,3S)—N-((6^3S,4S,Z)—(Ra)-1^2-(5-(3-(1,1-dioxidothiomorpholino)prop-1-yn-1-yl)-2-((S)-1-methoxyethyl)pyridin-3-yl)-1^1-(2-hydroxyethyl)-10,10-dimethyl-5,7-dioxo-6^1,6^2,6^3,6^4,6^5,6^6-hexahydro-1^1H-8-oxa-2(4,2)-thiazola-1(5,3)-indola-6(1,3)-pyridazinacycloundecaphane-4-yl)-2,3-dimethylcyclopropane-1-carboxamide], the half-maximal inhibitory concentration (IC50) was determined as 0.53 nM in assay [1] (Homo sapiens, ASPC1, 3 h); 0.34 nM in the assay with NCI-H441 cells (setting [4]); 0.27 nM in assay [2] (setting [5]); 0.54 nM in assay [3] (Homo sapiens, NCI-H441, 3 h).

Consider `CCn1c(-c2cc(OCC(C)(C)N3CCS(=O)(=O)CC3)cnc2[C@H](C)OC)c2c3cc(ccc31)-c1csc(n1)C[C@H](NC(=O)[C@H]1[C@H](C)[C@@H]1C)C(=O)N1CCC[C@H](N1)C(=O)OCC(C)(C)C2` (atropisomer, axis not shown; (Ra)) [Compound Z667, (1r,2R,3S)—N-((6^1S,4S,Z)—(Ra)-1^2-(5-(2-(1,1-dioxidothiomorpholino)-2-methylpropoxy)-2-((S)-1-methoxyethyl)pyridin-3-yl)-1^1-ethyl-10,10-dimethyl-5,7-dioxo-6^1,6^2,6^3,6^4,6^5,6^6-hexahydro-1^1H-8-oxa-2(4,2)-thiazola-1(5,3)-indola-6(1,3)-pyridazinacycloundecaphane-4-yl)-2,3-dimethylcyclopropane-1-carboxamide], for which the half-maximal inhibitory concentration (IC50) in assay [1] is 0.63 nM; with NCI-H441 cells (setting [6]), 0.71 nM; in assay [2] (setting [6]), 1.63 nM; in assay [3], 0.38 nM.

Take `CCn1c(-c2cc(C#CCN3CCCOCC3)cnc2[C@H](C)OC)c2c3cc(ccc31)-c1csc(n1)C[C@H](NC(=O)C[C@H]1CC1(F)F)C(=O)N1CCC[C@H](N1)C(=O)OCC(C)(C)C2` (atropisomer, axis not shown; (Ra)) [Compound Z932-2, N-((6^3S,4S,Z)—(Ra)-1^2-(5-(3-(1,4-oxazepan-4-yl)prop-1-yn-1-yl)-2-((S)-1-methoxyethyl)pyridin-3-yl)-1^1-ethyl-10,10-dimethyl-5,7-dioxo-6^1,6^2,6^3,6^4,6^5,6^6-hexahydro-1^1H-8-oxa-2(4,2)-thiazola-1(5,3)-indola-6(1,3)-pyridazinacycloundecaphane-4-yl)-2-((S)-2,2-difluorocyclopropyl)acetamide]: the IC50 in assay [1] (Homo sapiens, ASPC1, 3 h) stood at 2.62 nM; in the assay with NCI-H441 cells (setting [4]) it was 2.32 nM; in assay [2] (setting [5]), 5.52 nM; in assay [3] (Homo sapiens, NCI-H441, 3 h), 1.16 nM.

As for `CCn1c(-c2cc(N3CCN4CCOC[C@@H]4C3)cnc2[C@H](C)OC)c2c3cc(ccc31)-c1csc(n1)C[C@H](NC(=O)[C@H]1[C@H](C)[C@@H]1C)C(=O)N1CCC[C@H](N1)C(=O)OCC(C)(C)C2` (atropisomer, axis not shown; (Ra)) [Compound Z73, (1r,2R,3S)—N-((6^3S,4S,Z)-1^1-ethyl-(Ra)-1^2-(5-((S)-hexahydropyrazino[2,1-c][1,4]oxazin-8(1H)-yl)-2-((S)-1-(methoxy-d3)ethyl)pyridin-3-yl)-10,10-dimethyl-5,7-dioxo-6^1,6^2,6^3,6^4,6^5,6^6-hexahydro-1^1H-8-oxa-2(4,2)-thiazola-1(5,3)-indola-6(1,3)-pyridazinacycloundecaphane-4-yl)-2,3-dimethylcyclopropane-1-carboxamide], the IC50 in assay [1] stood at 0.21 nM; in the assay with NCI-H441 cells (setting [6]), 0.35 nM; in assay [2] (setting [6]), 0.65 nM; in assay [3] it was 0.24 nM.

As for `CCn1c(-c2cc([C@H]3CCN4CCOC[C@H]4C3)cnc2[C@H](C)OC)c2c3cc(ccc31)-c1csc(n1)C[C@H](NC(=O)[C@H]1[C@H](C)[C@@H]1C)C(=O)N1CCC[C@H](N1)C(=O)OCC1(CC1)C2` (single isomer, unassigned) [Compound Z78], the IC50 in assay [1] (Homo sapiens, ASPC1, 3 h) is 18.7 nM; in the assay with NCI-H441 cells (setting [4]), 7.54 nM; in assay [2] (setting [5]), 28.3 nM; in assay [3] (Homo sapiens, NCI-H441, 3 h), 9.86 nM.

These data come from patent US20260234165A1, “MACROCYCLIC COMPOUNDS, PREPARATION METHOD THEREFOR, AND USE THEREOF” (GENFLEET THERAPEUTICS (SHANGHAI) INC., priority 2004, published 2026).
